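How tested: cells in 96-well plates exposed to compound for 48 hours at five concentrations. At the TGI there is no net growth.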
How the values were obtained:
Assay in all cases: NCI tumour cell line growth inhibition, 48 h
SN12K1 renal = system: SN12K1 renal
P388/ADR leukemia = system: P388/ADR leukemia
P388 leukemia = system: P388 leukemia
DU-145 prostate = system: DU-145 prostate
BT-549 breast = system: BT-549 breast
HS 578T breast = system: HS 578T breast
T-47D breast = system: T-47D breast
MDA-MB-435 = system: MDA-MB-435
MDA-MB-231 breast = system: MDA-MB-231 breast
MDA-N = system: MDA-N
RXF-631 renal = system: RXF-631 renal

Row | Compound | TGI (SN12K1 renal) [µM] | TGI (P388/ADR leukemia) [µM] | TGI (P388 leukemia) [µM] | TGI (DU-145 prostate) [µM] | TGI (BT-549 breast) [µM] | TGI (HS 578T breast) [µM] | TGI (T-47D breast) [µM] | TGI (MDA-MB-435) [µM] | TGI (MDA-MB-231 breast) [µM] | TGI (MDA-N) [µM] | TGI (RXF-631 renal) [µM]
1 | COc1ccccc1Cc1nc(-c2ccccc2)nn(C2OC(COC(C)=O)C(OC(C)=O)C(OC(C)=O)C2OC(C)=O)c1=S (configuration not stated) | > 53.4 | > 100 | > 100 | – | – | – | – | – | – | – | –
2 | Cc1cn(Cc2cnnn2CC2OC(n3cc(C)c(=O)[nH]c3=O)CC2O)c(=O)[nH]c1=O (configuration not stated) | – | – | – | > 100 | > 100 | > 100 | > 100 | > 100 | > 100 | > 100 | –
3 | NCCCN(CCCN)CCN(CCN(CCCN)CCCN)CCN(CCCN)CCCN | – | – | – | > 100 | – | 58.5 | > 100 | > 100 | > 100 | > 100 | –
4 | COc1ccc(C2N(NC(=O)c3ccncc3)C(=O)CS2(=O)=O)cc1F (configuration not stated) | – | – | – | – | – | – | – | – | – | – | > 100
